This passage reports Normal melting temperature results from the NIST ThermoML archive (doi:10.1021/acs.jced.6b00279).

± gives the expanded uncertainty stated by the source.

For the series the following is noted: Crystal; visual observation.

In the case of `CCCC[n+]1ccccc1.[Br-]` [1-butylpyridinium bromide], the Normal melting temperature is 105.00 ± 2 °C.
